Experimental data as given in US9962395B2, “Compositions and methods for maintaining cognitive function” (The Regents of the University of California, priority 2014, dated 2018).
Entries after “also recorded” stand apart in the source; their conditions may differ.

Key:
Type in all cases: in vivo
[1] = test system: post-menopausal female patients; assay: Randomized, double-blind, placebo-controlled human clinical trial of estriol and norethindrone in menopause; details: oral estriol 2, 4, 6 or 8 mg/day, 36-month treatment, women
Protocol: This example describes a randomized, double-blind, placebo-controlled human clinical trial for the treatment of menopause estriol and norethindrone.
Women who are taking hormone replacement therapy are excluded from the trial.
Patients are randomized to oral estriol (2 mg/day, 4 mg/day, 6 mg/day, or 8 mg/day) or to placebo for a 36-month treatment duration. Gynecologists examine the patients before, during, and after the study. Each patient is examined at three- to six-month intervals during the trial. Patients also undergo mammograms before and after the study. In addition, at baseline, 3 months, 6 months, 12 months, 18 months, 24, months, 30 months, and 36 months, the investigators measure participants' estriol levels, and assess cognitive abilities.
A total of 100 patients receive estriol, and 100 patients receive placebo. Baseline characteristics are similar in both patient groups. Participants' mean age at entry is approximately 52 years. […] To ensure breast and uterus safety, every three months the patients take norethindrone 0.7 mg once a day for 14 days.

[2] = test system: ovariectomized female C57BL/6 mice; assay: Morris water maze (spatial memory) in ovariectomized mice
Protocol: (§1) FIG. 5. Peripheral estrogens improve performance on the Morris water maze via ERP expressed on neurons. Healthy female C57BL/6 were tested for cognitive performance (spatial memory) using the Morris water maze, whereby mice learn to spend more time in a target quadrant (TQ) as compared to three other quadrants (OQ). […] (Bottom graph) To determine (a) whether ER beta is required for proper learning and, more specifically, (b) whether ER beta expression in neurons is required for learning, mice were generated that had ER beta conditionally knocked out using CreLox technology, with Cre driving the knock out in neurons via the neuron-specific enolase (NSE) promoter. […] (***p≤0.001, ANOVA-Sidak's posttest). […] The dashed line on the graphs indicates the time expected to be spent in a quadrant by random chance in the absence of learning (25%).
Ovariectomized mice (OVX-Placebo) display worse performance in the Morris water maze than control mice (Sham-Placebo) (FIG. 5, top panel). The administration of an estriol improves performance in ovariectomized mice (OVX-Estriol) (FIG. 5, top panel).

[3] = test system: hippocampal CA1 of ovariectomized (OVX) mice; assay: Hippocampal slice electrophysiology: long term potentiation (LTP) in CA1 after high-frequency stimulation
Protocol: FIGS. 1A and 1B. Estriol partially recovers long term potentiation (LTP) in the hippocampal CA1 of ovariectomized (OVX) mice. (A) LTP induced by 2×100 Hz HFS in sham-placebo treated mice (open squares, n=4) is reduced in OVX-placebo treated mice (gray circles, n=4). Estriol-treated OVX mice show improved synaptic strength (black circles, n=4). Representative traces are superimposed average fEPSPs recorded at baseline and during final 15 minutes after HFS. Estriol (5 mg) or placebo was administered as subcutaneous pellets. Calibration: 2 mV, 5 ms. (B) Summary showing fEPSP slopes during baseline (Pre) and in final 15 minutes after HFS (Post). […] Statistics RM-ANOVA, Tukey's multiple comparison test, ****p≤0.0001.
Electrophysiology to assess excitatory synaptic transmission is an accepted biomarker for cognitive function in mice, which specifically tests long term potentiation (LTP) during stimulation of the region of the brain responsible for memory, the CA1 region of the hippocampus. Hippocampal electrophysiology was examined in slices from sham surgical mice treated with placebo (SP), ovariectomized mice treated with placebo (OP), and ovariectomized mice treated with estriol (OE). […] LTP was reduced in OP mice as compared to SP mice, consistent with the known deleterious effects upon loss of peripheral estrogen on neurotransmission (FIG. 1).

[4] = test system: PSD-95; assay: PSD-95 synaptic protein expression in dorsal hippocampus (western blot, immunofluorescence); details: OVX mice treated with estriol, n=2
Excerpt: FIG. 4 consists of two panels, labeled panels (A) and (B). Estriol partially recovers synaptic levels of PSD-95 in the dorsal hippocampus following OVX. Panel A: levels of PSD-95 are decreased in the dorsal hippocampus in OVX-Placebo mice (n=2) compared to Sham-Placebo mice (n=2). […] Scale bar=20 μm, 40× objective.
Expression of PSD-95 in the CA1 stratum radiatum was shown by both immunofluorescence and by western blot (FIG. 4)

[5] = test system: NSE-Cre:ERβ^fl/fl mice; assay: Morris water maze in mice with neuronal conditional knockout of ER beta; details: OVX estriol-treated NSE-Cre:ERβ^fl/fl mice, n=7
Protocol: as §1
Thus, estrogen receptor β ligands can likely protect against neuronal defects and disability during neurodegenerative processes. This is consistent with the observation that estriol improved performance since it is a known that estriol is an agonist for various estrogen receptors including estrogen receptor β.

`C[C@]12CC[C@@H]3c4ccc(O)cc4CC[C@H]3[C@@H]1C[C@@H](O)[C@@H]2O` [estriol] was tested, and the “Estriol levels in serum” value [1] was “in early pregnancy range”, the “% duration in target quadrant (TQ) versus other quadrants (OQ), learning” value ([2]; OVX mice, 20 days of 5 mg, 90 day release estriol implants, n=7, p≤0.01) was “significant preference for the TQ over OQ; also recorded: ability to learn may be restored” and the “average latency to platform during acquisition training” value ([2]; Sham-Placebo vs OVX-Placebo vs OVX-Estriol, 3 trials/mouse/day, RM-ANOVA p>0.05) was “no difference was observed”. The “LTP versus OVX-placebo mice (in words)” value ([3]; OVX mice treated with estriol for 9 weeks, RM-ANOVA, Tukey, p≤0.0001) was “significantly improved over OP mice; also recorded: significant improvement in LTP deficit from ovariectomy”, the “fEPSP slope in final 15 minutes after HFS (Post), Mean±SE post-HFS” value ([3]; OVX mice, estriol 5 mg subcutaneous pellet, 2×100 Hz HFS, n=4, sham-placebo 159.6±0.2, OVX-placebo 141.6±0.5) was 150.4±0.4 and the “PSD-95 levels in dorsal hippocampus / CA1 stratum radiatum versus OVX-placebo” value [4] was “increased expression of PSD-95; also recorded: elevated PSD-95 levels”. For the same compound, the “% duration in TQ versus OQ, estriol rescue of learning in ER beta neuronal knockout” value [5] was “estrogen-mediated improvement is lost; also recorded: the ability of estriol to rescue learning is mediated by ER beta expression in neurons”.
